Reference: patent publication US12343430B2, “Methods of improving pharmaceutical substance solubilization and products thereof” (MUDANJIANG LINRUN PHARAMA EXCIPIENTS LLC., priority 2019, dated 2025)
Converted amounts (≈) assume the structure as drawn.

Assays:
[1] = Solubility time profile of co-attrited Carbamazepine at 25° C., HPLC (Example 14); format: physicochemical; details: 500 mL DI water, paddle 100 rpm
Text: At each time interval, a given amount of solution was sampled and tested by an HPLC method.

[2] = Solubility time profile of co-attrited Carbamazepine at 37° C. (Example 12); format: physicochemical; details: 100 mL DI water, 0.45 μm filter, UV 285 nm
Text: All the final extrudant samples from Examples 8-11 were milled into powder and passed through an 80 mesh screen. […] At each sampling time, the solution sample was taken and filtered through a 0.45 μm syringe microfilter. […] For reference, the API Carbamazepine sample was used as control.

Solubility, drug concentration ([1]; 15 minutes): 225.68 µg/mL (≈ 955 µM) | Solubility, drug concentration ([1]; 30 minutes): 202.16 µg/mL (≈ 856 µM) | solubility at 5 min ([1]; deionised water, thermodynamic from solid, 5 minutes, read-out: Solubility, drug concentration): 89.2 µg/mL (≈ 377 µM) | solubility at 10 min ([1]; deionised water, thermodynamic from solid, 10 minutes, read-out: Solubility, drug concentration): 176 µg/mL (≈ 743 µM) | solubility at 45 min ([1]; deionised water, thermodynamic from solid, 45 minutes, read-out: Solubility, drug concentration): 175 µg/mL (≈ 741 µM) | solubility at 60 min ([1]; deionised water, thermodynamic from solid, 60 minutes, read-out: Solubility, drug concentration): 173 µg/mL (≈ 731 µM) | Solubility ([2]; 60 min): 320 µg/mL (≈ 1350 µM) | Solubility ([2]; 180 min): 288 µg/mL (≈ 1220 µM) | solubility at 5 min ([2]; deionised water, thermodynamic from solid, 5 min): 404 µg/mL (≈ 1710 µM) | solubility at 10 min ([2]; deionised water, thermodynamic from solid, 10 min): 402 µg/mL (≈ 1700 µM) | solubility at 15 min ([2]; deionised water, thermodynamic from solid, 15 min): 401 µg/mL (≈ 1700 µM) | solubility at 90 min ([2]; deionised water, thermodynamic from solid, 90 min): 316 µg/mL (≈ 1340 µM) | solubility at 120 min ([2]; deionised water, thermodynamic from solid, 120 min): 303 µg/mL (≈ 1280 µM)
Structure (SMILES): NC(=O)N1c2ccccc2C=Cc2ccccc21 [Carbamazepine API, Carbamazepine]
